Experimental data taken from paper PMC9481151, “Discovery of new symmetrical and asymmetrical nitrile-containing 1,4-dihydropyridine derivatives as dual kinases and P-glycoprotein inhibitors: synthesis, in vitro assays, and in silico studies” (Journal of Enzyme Inhibition and Medicinal Chemistry, 2022).

Key:
[1] = system: T-47D; assay: NCI single dose (10 µM) SRB screen; type: cell-based, human; details: breast cancer, 48 h
[2] = system: MDA-MB-468; assay: NCI single dose (10 µM) SRB screen; type: cell-based, human; details: breast cancer, 48 h
[3] = system: OVCAR-5; assay: NCI single dose (10 µM) SRB screen; type: cell-based, human; details: ovarian cancer, 48 h
[4] = system: Escherichia coli; assay: Agar well diffusion method
[5] = system: OVCAR-3; assay: NCI single dose (10 µM) SRB screen; type: cell-based, human; details: ovarian cancer, 48 h
[6] = system: SNB-19; assay: NCI single dose (10 µM) SRB screen; type: cell-based, human; details: CNS cancer, 48 h
[7] = system: UO-31; assay: NCI single dose (10 µM) SRB screen; type: cell-based, human; details: renal cancer, 48 h
[8] = system: SW-620; assay: NCI single dose (10 µM) SRB screen; type: cell-based, human; details: colon cancer, 48 h
[9] = system: MOLT-4; assay: NCI single dose (10 µM) SRB screen; type: cell-based, human; details: leukaemia, 48 h
[10] = system: ACHN; assay: NCI single dose (10 µM) SRB screen; type: cell-based, human; details: renal cancer, 48 h
[11] = system: NCI-H522; assay: NCI single dose (10 µM) SRB screen; type: cell-based, human; details: non-small cell lung cancer, 48 h
[12] = system: NCI/ADR-RES; assay: NCI single dose (10 µM) SRB screen; type: cell-based, human; details: ovarian cancer, 48 h
[13] = system: LOX IMVI; assay: NCI single dose (10 µM) SRB screen; type: cell-based, human; details: melanoma, 48 h
[14] = system: SK-MEL-5; assay: NCI single dose (10 µM) SRB screen; type: cell-based, human; details: melanoma, 48 h
[15] = system: HCC-2998; assay: NCI single dose (10 µM) SRB screen; type: cell-based, human; details: colon cancer, 48 h
[16] = system: SF-539; assay: NCI single dose (10 µM) SRB screen; type: cell-based, human; details: CNS cancer, 48 h
[17] = system: SN12C; assay: NCI single dose (10 µM) SRB screen; type: cell-based, human; details: renal cancer, 48 h
[18] = system: UACC-62; assay: NCI single dose (10 µM) SRB screen; type: cell-based, human; details: melanoma, 48 h
[19] = system: 786-0; assay: NCI single dose (10 µM) SRB screen; type: cell-based, human; details: renal cancer, 48 h
[20] = system: CAKI-1; assay: NCI single dose (10 µM) SRB screen; type: cell-based, human; details: renal cancer, 48 h
[21] = system: NCI-H226; assay: NCI single dose (10 µM) SRB screen; type: cell-based, human; details: non-small cell lung cancer, 48 h
[22] = system: HS578T; assay: NCI single dose (10 µM) SRB screen; type: cell-based, human; details: breast cancer, 48 h
[23] = system: HCT-116; assay: NCI single dose (10 µM) SRB screen; type: cell-based, human; details: colon cancer, 48 h
[24] = system: MDA-MB-231; assay: NCI single dose (10 µM) SRB screen; type: cell-based, human; details: breast cancer, 48 h
[25] = system: M14; assay: NCI single dose (10 µM) SRB screen; type: cell-based, human; details: melanoma, 48 h
[26] = system: KM12; assay: NCI single dose (10 µM) SRB screen; type: cell-based, human; details: colon cancer, 48 h
[27] = system: NCI 60 cancer cell lines; assay: NCI single dose (10 µM) SRB screen, mean over panel; type: cell-based, human; details: mean over 60 cell lines, 48 h
[28] = system: K-562; assay: NCI single dose (10 µM) SRB screen; type: cell-based, human; details: leukaemia, 48 h
[29] = system: HCT-15; assay: NCI single dose (10 µM) SRB screen; type: cell-based, human; details: colon cancer, 48 h
[30] = system: SK-MEL-2; assay: NCI single dose (10 µM) SRB screen; type: cell-based, human; details: melanoma, 48 h
[31] = system: SR; assay: NCI single dose (10 µM) SRB screen; type: cell-based, human; details: leukaemia, 48 h
[32] = system: OVCAR-4; assay: NCI single dose (10 µM) SRB screen; type: cell-based, human; details: ovarian cancer, 48 h
[33] = system: Aspergillus flavus; assay: Agar well diffusion method
[34] = system: EKVX; assay: NCI single dose (10 µM) SRB screen; type: cell-based, human; details: non-small cell lung cancer, 48 h
[35] = system: A498; assay: NCI single dose (10 µM) SRB screen; type: cell-based, human; details: renal cancer, 48 h
[36] = system: MCF7; assay: NCI single dose (10 µM) SRB screen; type: cell-based, human; details: breast cancer, 48 h
[37] = system: OVCAR-8; assay: NCI single dose (10 µM) SRB screen; type: cell-based, human; details: ovarian cancer, 48 h
[38] = system: TK-10; assay: NCI single dose (10 µM) SRB screen; type: cell-based, human; details: renal cancer, 48 h
[39] = system: Candida albicans; assay: Agar well diffusion method
[40] = system: UACC-257; assay: NCI single dose (10 µM) SRB screen; type: cell-based, human; details: melanoma, 48 h
[41] = system: DU-145; assay: NCI single dose (10 µM) SRB screen; type: cell-based, human; details: prostate cancer, 48 h
[42] = system: SF-268; assay: NCI single dose (10 µM) SRB screen; type: cell-based, human; details: CNS cancer, 48 h
[43] = system: HT29; assay: NCI single dose (10 µM) SRB screen; type: cell-based, human; details: colon cancer, 48 h
[44] = system: COLO 205; assay: NCI single dose (10 µM) SRB screen; type: cell-based, human; details: colon cancer, 48 h
[45] = system: NCI-H460; assay: NCI single dose (10 µM) SRB screen; type: cell-based, human; details: non-small cell lung cancer, 48 h
[46] = system: HOP-92; assay: NCI single dose (10 µM) SRB screen; type: cell-based, human; details: non-small cell lung cancer, 48 h
[47] = system: NCI-H23; assay: NCI single dose (10 µM) SRB screen; type: cell-based, human; details: non-small cell lung cancer, 48 h
[48] = system: RXF 393; assay: NCI single dose (10 µM) SRB screen; type: cell-based, human; details: renal cancer, 48 h
[49] = system: NCI-H322M; assay: NCI single dose (10 µM) SRB screen; type: cell-based; details: non-small cell lung cancer, 48 h
[50] = system: U251; assay: NCI single dose (10 µM) SRB screen; type: cell-based, human; details: CNS cancer, 48 h
[51] = system: PC-3; assay: NCI single dose (10 µM) SRB screen; type: cell-based, human; details: prostate cancer, 48 h
[52] = system: IGROV1; assay: NCI single dose (10 µM) SRB screen; type: cell-based, human; details: ovarian cancer, 48 h
[53] = system: MALME-3M; assay: NCI single dose (10 µM) SRB screen; type: cell-based, human; details: melanoma, 48 h

For `COC(=O)C1=C(C)NC(C)=C(C(=O)OCC(C)C)C1c1cccc(C#N)c1` (racemic) [Compound 2b, (±)-3-Isobutyl 5-methyl 4-(3-cyanophenyl)-2,6-dimethyl-1,4-dihydropyridine-3,5-dicarboxylate], the “GI% T-47D” value [1] was 25%, the “GI% MDA-MB-468” value [2] was “– (Only GI% ≥ 10 are shown)” and the “GI% OVCAR-5” value [3] was “– (Only GI% ≥ 10 are shown)”. For the same compound, the zone of inhibition at 1000 µg/mL ([4]; Escherichia coli, 24 h, read-out: Diameter of inhibition zone, E. coli) was 9 mm, the “% activity index, E. coli” value ([4]; relative to ciprofloxacin) was 34.6% and the “GI% OVCAR-3” value [5] was “– (Only GI% ≥ 10 are shown)”. The “GI% SNB-19” value [6] was “– (Only GI% ≥ 10 are shown)”, the “GI% UO-31” value [7] was 11% and the “GI% SW-620” value [8] was “– (Only GI% ≥ 10 are shown)”. The “GI% MOLT-4” value [9] was 16%, the “GI% ACHN” value [10] was “– (Only GI% ≥ 10 are shown)” and the “GI% NCI-H522” value [11] was 15%. For the same compound, the “GI% NCI/ADR-RES” value [12] was “– (Only GI% ≥ 10 are shown)”, the “GI% LOX IMVI” value [13] was “– (Only GI% ≥ 10 are shown)” and the “GI% SK-MEL-5” value [14] was “– (Only GI% ≥ 10 are shown)”. For the same compound, the “GI% HCC-2998” value [15] was “– (Only GI% ≥ 10 are shown)”, the “GI% SF-539” value [16] was “– (Only GI% ≥ 10 are shown)” and the “GI% SN12C” value [17] was “– (Only GI% ≥ 10 are shown)”. The “GI% UACC-62” value [18] was 21%, the “GI% 786-0” value [19] was “– (Only GI% ≥ 10 are shown)” and the “GI% CAKI-1” value [20] was 28%. The “GI% NCI-H226” value [21] was 10%, the “GI% HS578T” value [22] was 14% and the “GI% HCT-116” value [23] was 18%. The “GI% MDA-MB-231” value [24] was “– (Only GI% ≥ 10 are shown)”, the “GI% M14” value [25] was “– (Only GI% ≥ 10 are shown)” and the “GI% KM12” value [26] was “– (Only GI% ≥ 10 are shown)”. The “Mean GI%” value [27] was 5%, the “GI% K-562” value [28] was 15% and the “GI% HCT-15” value [29] was “– (Only GI% ≥ 10 are shown)”. The “GI% SK-MEL-2” value [30] was “– (Only GI% ≥ 10 are shown)”, the “GI% SR” value [31] was 29% and the “GI% OVCAR-4” value [32] was “– (Only GI% ≥ 10 are shown)”. For the same compound, the zone of inhibition at 1000 µg/mL ([33]; Aspergillus flavus, 24 h, read-out: Diameter of inhibition zone, A. flavus) was 11 mm, the “% activity index, A. flavus” value ([33]; relative to clotrimazole) was 44% and the “GI% EKVX” value [34] was 12%. For the same compound, the “GI% A498” value [35] was “– (Only GI% ≥ 10 are shown)”, the “GI% MCF7” value [36] was 15% and the “GI% OVCAR-8” value [37] was “– (Only GI% ≥ 10 are shown)”. For the same compound, the “GI% TK-10” value [38] was “– (Only GI% ≥ 10 are shown)”, the zone of inhibition at 1000 µg/mL ([39]; Candida albicans, 24 h, read-out: Diameter of inhibition zone, C. albicans) was 7 mm and the “% activity index, C. albicans” value ([39]; relative to clotrimazole) was 25.9%. For the same compound, the “GI% UACC-257” value [40] was “– (Only GI% ≥ 10 are shown)”, the “GI% DU-145” value [41] was “– (Only GI% ≥ 10 are shown)” and the “GI% SF-268” value [42] was “– (Only GI% ≥ 10 are shown)”. The “GI% HT29” value [43] was “– (Only GI% ≥ 10 are shown)”, the “GI% COLO 205” value [44] was “– (Only GI% ≥ 10 are shown)” and the “GI% NCI-H460” value [45] was “– (Only GI% ≥ 10 are shown)”. The “GI% HOP-92” value [46] was 17%, the “GI% NCI-H23” value [47] was “– (Only GI% ≥ 10 are shown)” and the “GI% RXF 393” value [48] was “– (Only GI% ≥ 10 are shown)”. The “GI% NCI-H322M” value [49] was “– (Only GI% ≥ 10 are shown)”, the “GI% U251” value [50] was “– (Only GI% ≥ 10 are shown)” and the “GI% PC-3” value [51] was 22%. For the same compound, the “GI% IGROV1” value [52] was 12% and the “GI% MALME-3M” value [53] was “– (Only GI% ≥ 10 are shown)”.
